The values below come from patent US20040266862A1, “Method of improving animal tissue quality by supplementing the animal diet with mixed tocotrienols” (priority 2003, published 2004).

Marks after values point to notes of the source that are not given here.

The conditions of experiment [1]: in vitro; compared with ATA; Kamat et al. 1997; cited from earlier work.
The subject of experiment [2] is swine. Description: 2000-2001 swine feed test: 24 hour raw pork loin pH. The class given is in vivo. As to conditions: for 24 hour raw pork loin pH, Increase vs. Control: overall ave. The source says:
(§1) Applicants assessed the effects of antioxidant supplementation on meat quality in an experiment in which pork from pigs fed one of four dietary treatments was compared across three genetic lines differing in carcass leanness and intramuscular fat content. Ninety-six pigs were used in the test, thirty-two in each of the three genetic lines. Swine feeding was initiated in September 2000. At about 80 pounds body weight the 32 pigs of each of the three genetic lines were randomly allotted to individual pens. The pigs were fed corn/soy based diets formulated to provide adequate levels of all nutrients. In addition, one of four dietary treatments was assigned to each pen: control, 1,000 ppm NAC, 500 ppm LA and 150 ppm MT.
(§2) The pigs were harvested in November and December 2000 when they had reached an average weight of 260 pounds. Meat tissue quality evaluations occurred on Jan. 28, 2001. At the packing plant individual hot carcass weight, back fat depth and loin depth were measured and lean percent was calculated. Loin pH and loin color value (Minolta L*) were recorded 24 hours post mortem.

In experiment [3] the test system is swine. The experiment can be described thus: 2000-2001 swine feed test: raw pork loin color (Minolta L*). The class given is in vivo.
Excerpt: as §1, §2
Minolta L* color value was measured objectively using a Minolta colorimeter. The Minolta L* value is an indication of the lightness of the pork loin. A lower value indicates a darker color and thus, higher quality.

Experiment [4] has as its system swine. As to conditions: administered to swine; Berg, NPPC Project No. 99-164; cited from earlier work.

Consider alpha-tocotrienol, for which the antioxidant activity result in experiment [1] is reported as “greater antioxidant activity than ATA”.
In the case of `CC(=O)N[C@@H](CS)C(=O)O` [NAC, N-acetylcysteine], the “24 hour raw pork loin pH” value in the experiment with swine [2] (Line 1 ave., 1,000 ppm in diet) was 6.07^b; with swine [2] (Line 2 ave., 1,000 ppm in diet), 5.78^a; in the experiment on swine [2] (Line 3 ave., 1,000 ppm in diet), 5.93^c; with swine [2] (Overall ave. of three genetic lines, 1,000 ppm in diet), 5.93^b. For the same molecule, the “24 hour raw pork loin pH, Increase vs. Control” value in the experiment with swine [2] (1,000 ppm in diet) came to 0.16. Moreover, the “raw pork loin color, Minolta L* value” with swine [3] (Line 1 ave., 1,000 ppm in diet) is 49.7; in the experiment on swine [3] (Line 2 ave., 1,000 ppm in diet), 53.0; with swine [3] (Line 3 ave., 1,000 ppm in diet) it was 49.0; in the experiment with swine [3] (overall ave., 1,000 ppm in diet), 50.5.
For the molecule `O=C(O)CCCCC1CCSS1` (stereo not drawn) [LA, alpha-lipoic acid], the “24 hour raw pork loin pH” value was 6.00^b with swine [2] (Line 1 ave., 500 ppm in diet); 5.90^b in the experiment on swine [2] (Line 2 ave., 500 ppm in diet); 5.99^c with swine [2] (Line 3 ave., 500 ppm in diet); 5.99^b in the experiment with swine [2] (Overall ave. of three genetic lines, 500 ppm in diet). Moreover, the “24 hour raw pork loin pH, Increase vs. Control” value in the experiment on swine [2] (500 ppm in diet) was 0.20. The “raw pork loin color, Minolta L* value” amounted to 52.0 with swine [3] (Line 1 ave., 500 ppm in diet); 50.9 in the experiment on swine [3] (Line 2 ave., 500 ppm in diet); 49.1 with swine [3] (Line 3 ave., 500 ppm in diet); 50.7 in the experiment with swine [3] (overall ave., 500 ppm in diet). The Color Score entry with swine [4] was “decrease”. The “Loin pH” value in the experiment with swine [4] is “increase”.
Regarding `CC(C)=CCC/C(C)=C/CC/C(C)=C/CC[C@]1(C)CCc2cc(O)c(C)c(C)c2O1` [gamma-tocotrienol], the antioxidant activity result in experiment [1] is listed as “greater antioxidant activity than ATA”.
